Paper PMC8856110, “Comparative chemical and biological hydrolytic stability of homologous esters and isosteres” (Journal of Enzyme Inhibition and Medicinal Chemistry, 2022)
Read-outs that look alike come from different tables or passages of the source.

Columns and labels:
[1] = Hydrolytic study using rat liver microsomes; format: in vitro ADME; settings: male, Wistar, 1 mg/mL microsomal fraction, absence of cofactor, 37 °C, read-out: Hydrolysis t1/2 Rat liver microsomes
Protocol: Rat liver microsomes were obtained from male Wistar rats (280–330 g) and prepared according to the methodology described by Cabrera and co-workers[17]. After obtaining rat liver microsomes, the protein quantification was done by a bicinchoninic acid assay using a commercial protein determination kit obtained from Sigma-Aldrich (St Louis MO, USA)[18]. […] The reaction was stopped by adding organic solvents at ice-cold temperature (i.e., 500 µL of methanol and 500 µL of acetonitrile).
(ii) Compounds 8–9: 0–15 min. A:B 40:60 v/v. (iii) Compounds 13–16: 0–4 min. […] A:B 60:40 v/v.
Given those results, we decided to study the comparative metabolic behaviour of the esters 1 and 2, 5 and 6, 11 and 12, using another biological matrix rich in carboxylesterases. Therefore, the kinetics of hydrolysis was established using rat liver microsomes in the absence of cofactor in order to prevent eventual oxidative metabolic reactions catalysed by CYP450 or FMO.

[2] = Rat plasma hydrolytic study; settings: for half-life at 500 μM: male, Wistar, rat, rat plasma (80% in phosphate buffer), pH 7.4
Protocol: (§1) Rat plasma was obtained from male Wistar rats’ blood and diluted in phosphate buffer (pH 7.4) to obtain a final plasma concentration of 80%. […] The sample was incubated at 37 °C for 5, 10, 20, and 30 min, under stirring. At the end of the incubation time, the reaction was stopped by adding methanol (500 μL) and acetonitrile (500 μL), both in ice-cold temperature. The mixture was centrifuged at 13.500 rpm for 15 min at 4 °C. The organic phase was transferred to a microtube, and the IS (1.25 µL) was added. Finally, the samples were filtered through PVDF syringe filters (Millex®: 0.22 µm pore size) and analysed by HPLC[16].
(§2) A Shimadzu Prominence HPLC system (Shimadzu, Tokyo, Japan) consisting of a UV/VIS Photodiode Array Detector (SPD-M20A), a binary pump (LC-20AD), a vacuum degasser (DGU-20A5), and an autosampler (SIL-20A) was used for analyses. The Chromatographic separation was achieved using a reversed phase (Kromasil® C18 HPLC Column: particle size 5 µm, L × I.D. 250 × 4.6 mm) preceded by a guard column (Phenomenex® C18: 4 × 3 mm). The column was held at ambient temperature (22 ± 2 °C). For the selection of the wavelength, the diode array-detector was used. To avoid interference with impurities, the longest suitable wavelength was chosen to evaluate the chromatograms, which allowed for sensitivity. The mobile phase was a combination of eluent A (0.1% formic acid) and eluent B (acetonitrile). Three mobile phases were carried out using an injection volume of 20 µL and an flow rate set at 1.0 ml/min. […] A:B 40:60 v/v. […] A:B 90:10 v/v; 4–8 min. linear-gradient from 90% A to A:B 60:40 v/v; 8–12 min. A:B 60:40 v/v.
(§3) The biologic hydrolysis of the esters 1–12 was carried out using rat plasma and rat liver microsomes. Each compound's half-life (t1/2) was calculated using the expression t1/2 = 0.693/a, as previously described.

[3] = Base-catalysed (alkaline) hydrolysis with LiOH in THF:H2O; settings: for half-life at 2.5 g/L: LiOH in tetrahydrofuran/water (6:4)
Protocol: (§4) The reaction was started by adding LiOH (24 μL, 1 mol/l), and the mixture was incubated at 37 °C for 5, 10, 20, and 30 min, under stirring in a water bath. At the end of the incubation period, an aliquot (20 μL) was transferred to a new tube, and subsequently, HCl (0.3 μL, 10% v:v) was added. The pH of the sample was checked to verify neutralisation, and acetonitrile (480 μL) was added. The final concentrations of all compounds in the solution were 2,5 g/L. Finally, the samples were filtered through PVDF syringe filters (Millex®: 0.22 µm pore size) and analysed by HPLC[15].
as §2
(§5) The time in minutes required to reduce half the initial amount of each ester compound (i.e., half-life - t1/2) was calculated using the expression t1/2 = 0.693/a, with "a" being the slope of the natural log of concentration of the sample vs. the incubation time.

carboxylesterase (CES) = assay: Enzymatic inhibition study in rat plasma with CES inhibitor bis(p-nitrophenyl)phosphate; format: in vitro ADME; settings: bis(p-nitrophenyl)phosphate 1, 10, 100 µM; ester 500 µM, 90 min
Protocol: The inhibitor was pre-incubated for 30 min at 37 °C, with (i) plasma (ii) rat liver microsomes and phosphate buffer pH 7,4 (final volume of 250 µL). […] The mixture was incubated again at 37 °C for 90 min under agitation. The analysis was performed by the same HPLC method used in the previous experiments. […] Data were expressed as percentages of inhibition.

[4] = buffer
Protocol: as §4, §2, §5

[5] = pH 7.4
Protocol: as §1, §2, §3

[6] = Hydrolysis t1/2 Alkaline, LiOH, THF:H2O, 37 °C

O=C(OCc1ccccc1)c1ccccc1 [Compound 6, benzyl benzoate]
half-life [1]: 13 min
half-life at 500 μM [2]: 12 min
half-life at 2.5 g/L [3]: 16 min

CCOC(=O)c1cccc(Br)c1 [Compound 11, ethyl 3-bromobenzoate]
half-life [1]: 12 min
half-life at 500 μM [2]: 11 min
half-life at 2.5 g/L [3]: 25 min

COC(=O)c1ccccc1 [Compound 1, methyl benzoate]
half-life [1]: 15 min
half-life at 500 μM [2]: 36 min
half-life at 2.5 g/L [3]: 14 min

CCOC(=O)c1ccccc1 [Compound 2, ethyl benzoate]
half-life [1]: 12 min
Metabolism in rat plasma in the presence of the CES inhibitor (carboxylesterase (CES)): strongly reduced
half-life at 500 μM [2]: 17 min
half-life at 2.5 g/L [3, 6]: 15 min
Hydrolysis t1/2 Alkaline ([3]; LiOH, THF:H2O, 37 °C): 14 min

CCCOC(=O)c1ccccc1 [Compound 3, n-propyl benzoate]
half-life at 500 μM [2]: 10 min
half-life at 2.5 g/L [3]: 19 min

COC(=O)c1ncn2c1CN(C)C(=O)c1cc(F)ccc1-2 [Compound 16, methyl 8-fluoro-5-methyl-6-oxo-4H-imidazo[1,5-a][1,4]benzodiazepine-3-carboxylate]
half-life at 500 μM [2]: 238 min

CCOC(=O)c1ccc(N)cc1 [Compound 13, ethyl 4-aminobenzoate, reference compound]
half-life at 500 μM [2]: 13 min

O=C(Oc1ccccc1)c1ccccc1 [Compound 5, phenyl benzoate]
half-life [1]: 10 min
half-life at 500 μM [2]: 7 min
half-life at 2.5 g/L [3]: 11 min

COC(=O)c1ccc(N)cc1 [Compound 14, methyl 4-aminobenzoate]
half-life at 500 μM [2]: 27 min

CCOC(=O)c1ncn2c1CN(C)C(=O)c1cc(F)ccc1-2 [Compound 15, flumazenil, reference compound]
half-life at 500 μM [2]: 89 min
Times less stable to plasma hydrolysis than methyl homologous 16 ([2]; rat plasma, versus 16): 2.7 times

CCOC(=O)c1ccc(Br)cc1 [Compound 12, ethyl 4-bromobenzoate]
half-life [1]: 10 min
half-life at 500 μM [2]: 12 min
half-life at 2.5 g/L [3]: 12 min

COC(=O)Cc1ccccc1 [Compound 8, methyl 2-phenylacetate]
half-life at 500 μM [2]: 3 min
Loss of plasma metabolic stability relative to ester 1 ([2]; rat plasma, versus ester 1): twelve times less stable
half-life at 2.5 g/L [3, 6]: 39 min

CC(=O)Oc1ccccc1 [Compound 9]
half-life at 500 μM [2]: 19 min
half-life at 2.5 g/L [3, 6]: 58 min

methyl 2-naphthoate [Compound 7]
Hydrolysis t1/2 Alkaline [4]: 29 min
Hydrolysis t1/2 Rat plasma [5]: 17 min

CCOC(=O)c1ccccc1Br [Compound 10, ethyl 2-bromobenzoate]
half-life at 500 μM [2]: 10 min
half-life at 2.5 g/L [3]: 15 min

CCCCOC(=O)c1ccccc1 [Compound 4, n-butyl benzoate]
half-life at 500 μM [2]: 10 min
half-life at 2.5 g/L [3]: 21 min
